Test results reported in patent US6274715A, “Tricyclic erythromycin derivatives” (priority 1997, dated 2001).
≈ marks a conversion by molar mass, not a printed value.

Columns and labels:
Type in all cases: cell-based
[1] = tested on: STAPHYLOCOCCUS AUREUS NCTC10649M; assay: In vitro antibacterial activity, MIC, BHI agar dilution; conditions: S. aureus NCTC10649M, unit assumed
[2] = tested on: MYCOBACTERIUM SMEGMATIS ATCC 114; assay: as above; conditions: M. smegmatis ATCC 114, unit assumed
[3] = tested on: STREPTOCOCCUS BOVIS A-5169; assay: as above; conditions: S. bovis A-5169, unit assumed
[4] = tested on: STREPTOCOCCUS PYOGENES EES61; assay: as above; conditions: S. pyogenes EES61, unit assumed
[5] = tested on: PSEUDOMONAS AERUGINOSA DPHD-5263; assay: as above; conditions: P. aeruginosa DPHD-5263, unit assumed
[6] = tested on: PSEUDOMONAS AERUGINOSA BMH10; assay: as above; conditions: P. aeruginosa BMH10, unit assumed
[7] = tested on: STAPHYLOCOCCUS AUREUS CMX 553; assay: as above; conditions: S. aureus CMX 553, unit assumed
[8] = tested on: PROVIDENCIA STUARTII CMX 640; conditions: P. stuartii CMX 640; BHI agar; unit assumed
[9] = tested on: STAPHYLOCOCCUS AUREUS 1775; assay: In vitro antibacterial activity, MIC, BHI agar dilution; conditions: S. aureus 1775, unit assumed
[10] = tested on: STREPTOCOCCUS PYOGENES PIU 2548; assay: as above; conditions: S. pyogenes PIU 2548, unit assumed
[11] = tested on: PSEUDOMONAS AERUGINOSA 5007; assay: as above; conditions: P. aeruginosa 5007, unit assumed
[12] = tested on: STAPHYLOCOCCUS AUREUS CMX 642A; assay: as above; conditions: S. aureus CMX 642A, unit assumed
[13] = tested on: PSEUDOMONAS AERUGINOSA K799/WT; assay: as above; conditions: P. aeruginosa K799/WT, unit assumed
[14] = tested on: STAPHYLOCOCCUS AUREUS A-5278; assay: as above; conditions: S. aureus A-5278, unit assumed
CANDIDA ALBICANS CCH 442 = assay: as above; conditions: C. albicans CCH 442, unit assumed
PSEUDOMONAS CEPACIA 296I = assay: as above; conditions: P. cepacia 296I, unit assumed
ESCHERICHIA COLI KNK 437 = conditions: E. coli KNK 437; BHI agar; unit assumed
ESCHERICHIA COLI JUHL = conditions: E. coli JUHL; BHI agar; unit assumed
ESCHERICHIA COLI H560 = assay: In vitro antibacterial activity, MIC, BHI agar dilution; conditions: E. coli H560, unit assumed
[15] = tested on: KLEBSIELLA PNEUMONIAE ATCC 8045; assay: as above; conditions: K. pneumoniae ATCC 8045, unit assumed
ESCHERICHIA COLI SS = assay: as above; conditions: E. coli SS, unit assumed
ESCHERICHIA COLI DC-2 = assay: as above; conditions: E. coli DC-2, unit assumed
[16] = tested on: PSEUDOMONAS AERUGINOSA DPHD-2862; assay: as above; conditions: P. aeruginosa DPHD-2862, unit assumed
EN[…] ATCC 8043 = assay: as above; conditions: E. faecium ATCC 8043, unit assumed
In short: (§1)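 Agar dilution in BHI: plates inoculated with 1:100 dilutions of organisms (1:10 for Micrococcus and Streptococcus), incubated 20-24 h at 35-37° C, then inspected for the lowest inhibitory concentration against a drug-free growth control.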

STR[…] 508 = assay: as above; conditions: S. agalactiae CMX 508, unit assumed
In short: as §1

M[…] ATCC 4698 = assay: as above; conditions: M. luteus ATCC 4698, unit assumed
In short: as §1

M[…] ATCC 9341 = assay: as above; conditions: M. luteus ATCC 9341, unit assumed
In short: as §1

[17] = tested on: STAPHYLOCOCCUS EPIDERMIDIS 3519; conditions: S. epidermidis 3519; BHI agar; unit assumed
[18] = tested on: STREPTOCOCCUS PYOGENES 930; assay: In vitro antibacterial activity, MIC, BHI agar dilution; conditions: S. pyogenes 930, unit assumed
[19] = tested on: ENTEROBACTER AEROGENES ATCC 13048; assay: as above; conditions: E. aerogenes ATCC 13048, unit assumed
[20] = tested on: STAPHYLOCOCCUS AUREUS ATCC 6538P; assay: as above; conditions: S. aureus ATCC 6538P, 35-37° C., 20 to 24 hours, unit assumed
[21] = tested on: STAPHYLOCOCCUS AUREUS A5177; assay: as above
[22] = tested on: PSEUDOMONAS AERUGINOSA K799/61; assay: as above; conditions: P. aeruginosa K799/61, unit assumed

Structure (SMILES) | MIC [1] | MIC [4] | MIC [5] | MIC [6] | MIC [7] | MIC [8] | MIC [9] | MIC [10] | MIC [11] | MIC [12] | MIC [13] | MIC [14] | MIC (CANDIDA ALBICANS CCH 442) | MIC (ESCHERICHIA COLI KNK 437) | MIC (ESCHERICHIA COLI JUHL) | MIC (ESCHERICHIA COLI H560) | MIC [15] | MIC (ESCHERICHIA COLI SS) | MIC (ESCHERICHIA COLI DC-2) | MIC [16] | further results
CC[C@H]1OC(=O)[C@H](C)C(=O)[C@H](C)[C@@H](O[C@@H]2O[C@H](C)C[C@H](N(C)C)[C@H]2O)[C@](C)(OC)C[C@@H](C)C2=NC[C@H](C)N3C(=O)O[C@@]1(C)[C@H]3[C@H]2C [Example 8] | 0.78 µg/mL (≈ 1.2 µM) | 0.1 µg/mL (≈ 0.153 µM) | > 100 µg/mL | 100 µg/mL (≈ 153 µM) | 0.78 µg/mL (≈ 1.2 µM) | > 100 µg/mL | > 100 µg/mL | 0.78 µg/mL (≈ 1.2 µM) | > 100 µg/mL | 0.78 µg/mL (≈ 1.2 µM) | 100 µg/mL (≈ 153 µM) | > 100 µg/mL | > 100 µg/mL | 100 µg/mL (≈ 153 µM) | 100 µg/mL (≈ 153 µM) | 25 µg/mL (≈ 38.4 µM) | 100 µg/mL (≈ 153 µM) | 0.78 µg/mL (≈ 1.2 µM) | 50 µg/mL (≈ 76.7 µM) | > 100 µg/mL | MIC [2]: 6.2 µg/mL (≈ 9.51 µM); MIC [3]: 0.1 µg/mL (≈ 0.153 µM); MIC (PSEUDOMONAS CEPACIA 296I): > 100 µg/mL; MIC (EN[…] ATCC 8043): 0.78 µg/mL (≈ 1.2 µM); MIC (STR[…] 508): 0.1 µg/mL (≈ 0.153 µM); MIC (M[…] ATCC 4698): 1.56 µg/mL (≈ 2.39 µM); MIC (M[…] ATCC 9341): 1.56 µg/mL (≈ 2.39 µM); MIC [17]: 0.78 µg/mL (≈ 1.2 µM); MIC [18]: > 100 µg/mL; MIC [19]: 100 µg/mL (≈ 153 µM); MIC [20]: 0.78 µg/mL (≈ 1.2 µM); MIC ([21]; S. aureus A5177, unit assumed): 0.78 µg/mL (≈ 1.2 µM)
CC[C@H]1OC(=O)[C@H](C)[C@@H](O[C@H]2C[C@@](C)(OC)[C@@H](O)[C@H](C)O2)[C@H](C)[C@@H](O[C@@H]2O[C@H](C)C[C@H](N(C)C)[C@H]2O)[C@@H](C)C[C@@H](C)C2=NCCN3C(=O)O[C@@]1(C)[C@H]3[C@H]2C [Example 14] | 0.2 µg/mL (≈ 0.26 µM) | ≤ 0.005 µg/mL | > 100 µg/mL | 100 µg/mL (≈ 130 µM) | 0.1 µg/mL (≈ 0.13 µM) | > 100 µg/mL | > 100 µg/mL | 1.56 µg/mL (≈ 2.03 µM) | > 100 µg/mL | 0.2 µg/mL (≈ 0.26 µM) | 100 µg/mL (≈ 130 µM) | > 100 µg/mL | > 100 µg/mL | 100 µg/mL (≈ 130 µM) | 50 µg/mL (≈ 65.1 µM) | 50 µg/mL (≈ 65.1 µM) | 25 µg/mL (≈ 32.6 µM) | 0.39 µg/mL (≈ 0.508 µM) | 50 µg/mL (≈ 65.1 µM) | > 100 µg/mL | MIC [2]: 3.1 µg/mL (≈ 4.04 µM); MIC [22]: 3.1 µg/mL (≈ 4.04 µM); MIC (EN[…] ATCC 8043): 0.05 µg/mL (≈ 0.0651 µM); MIC (STR[…] 508): 0.01 µg/mL (≈ 0.013 µM); MIC (M[…] ATCC 4698): 0.78 µg/mL (≈ 1.02 µM); MIC (M[…] ATCC 9341): 0.78 µg/mL (≈ 1.02 µM); MIC [17]: 0.2 µg/mL (≈ 0.26 µM); MIC [19]: 100 µg/mL (≈ 130 µM); MIC [20]: 0.1 µg/mL (≈ 0.13 µM); MIC ([21]; S. aureus A5177): 6.2 µg/mL (≈ 8.07 µM)
CC[C@H]1OC(=O)[C@H](C)C(=O)[C@H](C)[C@@H](O[C@@H]2O[C@H](C)C[C@H](N(C)C)[C@H]2O)[C@](C)(OC)C[C@@H](C)C2=N[C@@H]3CN(Cc4ccccc4)C[C@@H]3N3C(=O)O[C@@]1(C)[C@H]3[C@H]2C [Example 21] | 0.78 µg/mL (≈ 1.01 µM) | 0.01 µg/mL (≈ 0.013 µM) | > 100 µg/mL | 100 µg/mL (≈ 130 µM) | 0.78 µg/mL (≈ 1.01 µM) | > 100 µg/mL | > 100 µg/mL | 0.39 µg/mL (≈ 0.507 µM) | > 100 µg/mL | 6.2 µg/mL (≈ 8.06 µM) | > 100 µg/mL | > 100 µg/mL | > 100 µg/mL | > 100 µg/mL | > 100 µg/mL | 50 µg/mL (≈ 65 µM) | > 100 µg/mL | 1.56 µg/mL (≈ 2.03 µM) | 100 µg/mL (≈ 130 µM) | > 100 µg/mL | MIC [3]: 0.05 µg/mL (≈ 0.065 µM); MIC (PSEUDOMONAS CEPACIA 296I): > 100 µg/mL; MIC [22]: 3.1 µg/mL (≈ 4.03 µM); MIC (EN[…] ATCC 8043): 0.2 µg/mL (≈ 0.26 µM); MIC (STR[…] 508): 0.05 µg/mL (≈ 0.065 µM); MIC (M[…] ATCC 4698): 3.1 µg/mL (≈ 4.03 µM); MIC (M[…] ATCC 9341): 0.78 µg/mL (≈ 1.01 µM); MIC [17]: 0.78 µg/mL (≈ 1.01 µM); MIC [18]: 100 µg/mL (≈ 130 µM); MIC [19]: > 100 µg/mL; MIC [20]: 0.78 µg/mL (≈ 1.01 µM); MIC ([21]; S. aureus A5177, unit assumed): 0.78 µg/mL (≈ 1.01 µM)
